Reference: patent US20260159519A1, “IMIDAZOPYRIDAZINE SUBSTITUTED BENZENE RING DERIVATIVE, PREPARATION METHOD, PHARMACEUTICAL COMPOSITION AND USE” (SHANGHAI SIMR BIOTECHNOLOGY CO., LTD., priority 2022, published 2026)

tested on: Chinese hamster ovary cells (CHO-WBL cells); assay: In vitro micronucleus assay; assay type: cell-based; conditions: 3-hour treatment with S9, 3-hour and 24-hour treatment without S9; overall judgment
Source text: The experimental design is based on the experimental purpose and follows the following experimental design guidelines: • (1) OECD Guidelines for the Testing of Chemicals 487, In Vitro Mammalian Cell Micronucleus Test, revised in 2016; • (2) ICH S2 (R1): Guideline on Genotoxicity Testing and Data Interpretation for Pharmaceuticals Intended for Human Use, validated in November 2011.
Experimental system and selection rationale: Chinese hamster ovary cells (CHO-WBL cells) were used as an experimental system in this experiment. The cell line has a karyotype containing 21 chromosomes and a growth cycle of 12 to 13 hours. CHO-WBL cells were originally derived from Dr. S. Wolff at the University of California in San Francisco, USA, then cloned in the laboratory of Dr. A. Bloom at Columbia University in New York, and cloned again by Dr. S. Galloway at Litton Bionetics Laboratory in Maryland. The cell stock solution was stored in liquid nitrogen. The karyotype of each batch of cell stock solution was identified, and tests confirmed that it was free from mycoplasma contamination. The number of passages after cell cloning will not exceed 15. Chinese hamster ovary cells were chosen because the cell line is recommended for use in OECD Guidelines for the Testing of Chemicals 487 and has been proven to be sensitive to a variety of clastogens/aneugens (Marilyn J. et al., 2006).
Medium and cell growth conditions: Chinese hamster ovary cells were cultured in McCoy's 5A complete medium (McCoy's 5A complete medium supplemented with 10 vt % fetal bovine serum, 2 mM GlutaMAX™ medium, 100 units/mL penicillin, and 100 μg/mL streptomycin), and grown in a standard environment (a high-humidity incubator with a temperature of 37° C. and a CO2 concentration of 5%). The day before administration, CHO-WBL cells in exponential growth phase were inoculated onto an eight-well cell culture slide at a density of 8×10^3 cells/400 μL McCoy's 5A complete medium/well.
Metabolic activation system: The in vitro metabolic activation system (Maron and Ames, 1983) contains a rat liver microsomal homogenate induced by β-naphthoflavone and phenobarbital (referred to as S9) and an NADPH-generating system (i.e., NADP disodium and isocitric acid trisodium). S9 was purchased from CHI Scientific, Inc. and stored in a −75° C. refrigerator prior to use. Preparation method for S9 homogenate: Male Sprague Dawley rats were intraperitoneally injected with a single dose of p-naphthoflavone and phenobarbital, followed by material preparation.
Preparation of S9 metabolic activation system: NADP disodium salt and isocitric acid trisodium salt were first dissolved in serum-free medium to prepare a core solution, which was then filtered through a 0.22 µm filter to sterilize. Immediately before use, the S9 homogenate was thawed, and the components of the S9 metabolic activation system were mixed in the proportions shown in Table 2 below.
Dose exploration experiment: In the dose exploration experiment, 8 administration concentrations were established in each administration treatment series. For each concentration of the test substance, 1 well of cells was set up. According to the ICH S2 (R1) guidelines, when not limited by the solubility of the test substance in the solvent/medium or the cytotoxicity of the test substance, the recommended maximum concentration is 1 mM or 0.5 mg/mL, whichever is lower. However, when limited by solubility, the test maximum concentration is the minimum concentration at which a small amount of precipitate is visible in the medium under the microscope. To ensure that the upper limit of solubility in the medium can be reached, up to 4 concentrations with visible precipitate can be tested.

**Q.** For CCN1C(=O)COc2cc(-c3cc(-c4cnnc5c4ncn5CC)ccc3F)c(OC)cc21 [Example 31, 4-Ethyl-7-(5-(7-ethyl-7H-imidazo[4,5-c]pyridazin-4-yl)-2-fluorophenyl)-6-methoxy-2H-benzo[b][1,4]oxazin-3(4H)-one], which “Results of in vitro micronucleus assay” value is on record?
**A.** The value was “Negative”.

**Q.** How did the “Results of in vitro micronucleus assay” value turn out when COc1cc2c(cc1-c1cc(-c3cnnc4c3ncn4C(C)C)ccc1F)OCC(=O)N2C [Example 36, 7-(2-Fluoro-5-(7-isopropyl-7H-imidazo[4,5-c]pyridazin-4-yl)phenyl)-6-methoxy-4-methyl-2H-benzo[b][1,4]oxazin-3(4H)-one] was run?
**A.** Its value is “Negative”.

**Q.** CCn1cnc2c(-c3ccc(F)c(-c4cc5c(cc4OC)N(C)C(=O)CO5)c3)cnnc21 [Example 42, 7-(5-(7-Ethyl-7H-imidazo[4,5-c]pyridazin-4-yl)-2-fluorophenyl)-6-methoxy-4-methyl-2H-benzo[b][1,4]oxazin-3(4H)-one] was tested. Which “Results of in vitro micronucleus assay” value did it give?
**A.** The value was “Negative”.

**Q.** With CCn1cnc2c(-c3ccc(F)c(-c4cc5oc(=O)n(C)c5cc4OC)c3)cnnc21 [Example 87, 6-(5-(7-Ethyl-7H-imidazo[4,5-c]pyridazin-4-yl)-2-fluorophenyl)-5-methoxy-3-methylbenzo[d]oxazol-2(3H)-one] as the compound, how does the “Results of in vitro micronucleus assay” value read?
**A.** The value was “Negative”.

**Q.** How did the “Results of in vitro micronucleus assay” value turn out when CCn1cnc2c(-c3ccc(F)c(-c4cc5c(cc4OC)N(C)C(=O)C5)c3)cnnc21 [Example 161, 5-(5-(7-Ethyl-7H-imidazo[4,5-c]pyridazin-4-yl)-2-fluorophenyl)-6-methoxy-1-methyldihydro-2-one] was run?
**A.** Its value is “Negative”.
